Converted amounts (≈) assume the structure as drawn.
Experiments:
[1] = molecular target: S-phase kinase-associated protein 2/Cyclin-dependent kinases regulatory subunit 1/S-phase kinase-associated protein 1 (Homo sapiens, UniProt Q13309); test: Inhibition of GST-tagged Skp2/Skp1 (unknown origin)/His6-tagged Cks1 (unknown origin) interaction preincubated with Skp2/Skp1 for 10 mins followed by Cks1 addition measured after 20 mins by HTRF assay; type: protein assay
MGC-803 = test: Antitumor activity against human MGC-803 cells assessed as cell growth inhibition incubated for 72 hrs by MTT assay; type: functional, cell-based; conditions: MGC-803, 72 h
[2] = Antitumor activity against human EC1 cells assessed as cell growth inhibition incubated for 72 hrs by MTT assay; type: functional, cell-based; conditions: EC1, 72 h
MCF7 = test: Antitumor activity against human MCF7 cells assessed as cell growth inhibition incubated for 72 hrs by MTT assay; type: functional, cell-based; conditions: MCF7, 72 h
NCI-H1299 = test: Antitumor activity against human NCI-H1299 cells assessed as cell growth inhibition incubated for 72 hrs by MTT assay; type: functional, cell-based; conditions: NCI-H1299, 72 h
[3] = Solubility in cell culture medium by HPLC analysis; type: physicochemical
PC-3 = test: Antitumor activity against human PC-3 cells assessed as cell growth inhibition incubated for 72 hrs by MTT assay; type: functional, cell-based; conditions: PC-3, 72 h

Sequence of S-phase kinase-associated protein 2/Cyclin-dependent kinases regulatory subunit 1/S-phase kinase-associated protein 1 (P61024 whole entry): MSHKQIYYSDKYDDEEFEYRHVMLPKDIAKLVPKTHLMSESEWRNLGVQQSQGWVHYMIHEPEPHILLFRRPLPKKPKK
Sequence of S-phase kinase-associated protein 2/Cyclin-dependent kinases regulatory subunit 1/S-phase kinase-associated protein 1 (Q13309 whole entry): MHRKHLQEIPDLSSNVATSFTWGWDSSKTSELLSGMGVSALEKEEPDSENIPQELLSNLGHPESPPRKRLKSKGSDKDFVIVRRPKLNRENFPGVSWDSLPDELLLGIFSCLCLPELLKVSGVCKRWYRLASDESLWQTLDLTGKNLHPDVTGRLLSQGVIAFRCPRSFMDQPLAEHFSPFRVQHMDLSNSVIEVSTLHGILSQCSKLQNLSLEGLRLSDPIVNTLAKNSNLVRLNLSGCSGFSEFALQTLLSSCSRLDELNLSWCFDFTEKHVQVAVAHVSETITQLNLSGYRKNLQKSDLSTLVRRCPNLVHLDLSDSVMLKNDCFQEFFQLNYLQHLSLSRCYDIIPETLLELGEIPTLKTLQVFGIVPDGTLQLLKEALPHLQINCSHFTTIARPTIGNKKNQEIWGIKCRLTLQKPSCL
Sequence of S-phase kinase-associated protein 2/Cyclin-dependent kinases regulatory subunit 1/S-phase kinase-associated protein 1 (P63208 whole entry, further chain): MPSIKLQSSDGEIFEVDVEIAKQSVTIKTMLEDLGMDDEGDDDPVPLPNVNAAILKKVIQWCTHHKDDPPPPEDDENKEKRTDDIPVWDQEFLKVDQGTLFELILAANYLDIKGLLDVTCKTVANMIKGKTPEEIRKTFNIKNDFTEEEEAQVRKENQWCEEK

Structure (SMILES) | IC50 [1] | other results
OCC1CCN(c2cnc(-c3ccccc3)c(-c3ccccc3)n2)CC1 | > 50 µM | 
CC(C)(C)OC(=O)NC1CCCN(c2cnc(-c3ccccc3)c(-c3ccccc3)n2)C1 (configuration not stated) | > 25 µM | 
c1ccc(-c2ncc(N3CCOCC3)nc2-c2ccccc2)cc1 | > 50 µM | 
O=C(NC1CCN(c2cnc(-c3ccccc3)c(-c3ccccc3)n2)CC1)c1ccccc1 |  | IC50 (MGC-803): 41.3 µM; IC50 [2]: > 100 µM; IC50 (MCF7): 25.1 µM; IC50 (NCI-H1299): > 100 µM; solubility [3]: 0.1 µg/mL (≈ 0.23 µM); IC50 (PC-3): > 100 µM
CC(=O)NCC1CCN(c2cnc(-c3ccccc3)c(-c3ccccc3)n2)CC1 | 12.4 µM | 
C=CC(=O)N1CCN(c2cnc(-c3ccccc3)c(-c3ccccc3)n2)CC1 | > 25 µM | 
CC(C)(C)C(=O)NCC1CCN(c2cnc(-c3ccco3)c(-c3ccccc3)n2)CC1 | 8.12 µM | 
O=C(CCl)N1CCN(c2cnc(-c3ccccc3)c(-c3ccccc3)n2)CC1 | 9.9 µM | 
CC(C)(C)C(=O)NC1CCN(c2cnc(-c3ccccc3)c(-c3ccccc3)n2)CC1 | 10.2 µM | 
CC(C)(C)C(=O)NCC1CCN(c2cnc(-c3ccc(C(F)(F)F)cc3)c(-c3ccccc3)n2)CC1 | 10.9 µM | 
CC(C)N(CCCCOCC(=O)Nc1nccs1)c1cnc(-c2ccccc2)c(-c2ccccc2)n1 | > 50 µM | 
CN(c1cnc(-c2ccccc2)c(-c2ccccc2)n1)C1CCCCC1 | > 50 µM | 
CN(C)CCNc1cnc(-c2ccccc2)c(-c2ccccc2)n1 | > 50 µM | 
O=C(c1cccs1)N1CCN(c2cnc(-c3ccccc3)c(-c3ccccc3)n2)CC1 | > 25 µM | 
CC(C)(C)C(=O)NCC1CCN(c2cnc(-c3cncnc3)c(-c3ccccc3)n2)CC1 | > 25 µM | 
c1ccc(-c2ncc(N3CCSCC3)nc2-c2ccccc2)cc1 | > 50 µM | 
O=C(CCCl)NCC1CCN(c2cnc(-c3ccccc3)c(-c3ccccc3)n2)CC1 | 13.1 µM | 
C=CC(=O)NCC1CCN(c2cnc(-c3ccccc3)c(-c3ccccc3)n2)CC1 | > 25 µM | 
CC(C)(C)C(=O)NCC1CCN(c2cnc(-c3ccncc3)c(-c3ccccc3)n2)CC1 | > 25 µM | 
O=C(NC1CCN(c2cnc(-c3ccccc3)c(-c3ccccc3)n2)CC1)Oc1ccccc1 | 13.5 µM | 
CN(CCNC(=O)OC(C)(C)C)c1cnc(-c2ccccc2)c(-c2ccccc2)n1 | 20.2 µM | 

Structure (SMILES) | IC50 [1] | other results
CC(C)(C)C(=O)NCC1CCN(c2cnc(-c3cccc(CO)c3)c(-c3ccccc3)n2)CC1 | > 25 µM | 
CC(C)(C)OC(=O)NC1CCN(c2cnc(-c3ccccc3)c(-c3ccccc3)n2)C1 (configuration not stated) | > 25 µM | 
CC(C)(C)C(=O)N1CCN(c2cnc(-c3ccccc3)c(-c3ccccc3)n2)CC1 | 13.2 µM | 
CCS(=O)(=O)NC1CCN(c2cnc(-c3ccccc3)c(-c3ccccc3)n2)CC1 | > 25 µM | 
CC(C)Nc1cnc(-c2ccccc2)c(-c2ccccc2)n1 | > 50 µM | 
O=C(CBr)N1CCN(c2cnc(-c3ccccc3)c(-c3ccccc3)n2)CC1 | > 25 µM | 
O=C(NC1CCN(c2cnc(-c3ccccc3)c(-c3ccccc3)n2)CC1)OCc1ccccc1 | > 25 µM | 
COc1cnc(-c2ccccc2)c(-c2ccccc2)n1 | > 50 µM | 
CC(C)(C)OC(=O)NCCCNc1cnc(-c2ccccc2)c(-c2ccccc2)n1 | > 25 µM | 
CN(C)CCN(C)c1cnc(-c2ccccc2)c(-c2ccccc2)n1 | > 50 µM | 
O=C(NCC1CCN(c2cnc(-c3ccccc3)c(-c3ccccc3)n2)CC1)C1CC1 | 3.3 µM | 
CC(C)(C)C(=O)NCC1CCN(c2cnc(-c3ccc(CO)cc3)c(-c3ccccc3)n2)CC1 |  | IC50 (MGC-803): > 100 µM; IC50 [2]: > 100 µM; IC50 (MCF7): > 100 µM; IC50 (NCI-H1299): 100 µM; solubility [3]: 0.06 µg/mL (≈ 0.131 µM); IC50 (PC-3): > 100 µM
CS(=O)(=O)NC(=O)COCCCCNc1cnc(-c2ccccc2)c(-c2ccccc2)n1 | > 50 µM | 
CC1CN(c2cnc(-c3ccccc3)c(-c3ccccc3)n2)CCN1C(=O)OC(C)(C)C (configuration not stated) | > 25 µM | 
O=C(CBr)NCC1CCN(c2cnc(-c3ccccc3)c(-c3ccccc3)n2)CC1 | > 25 µM | 
CC(C)N(CCCCOCC(=O)Nc1ccccc1)c1cnc(-c2ccccc2)c(-c2ccccc2)n1 | > 50 µM | 
CS(=O)(=O)NC(=O)COCCCCN(Cc1ccccc1)c1cnc(-c2ccccc2)c(-c2ccccc2)n1 | > 50 µM | 
CCC(=O)N1CCN(c2cnc(-c3ccccc3)c(-c3ccccc3)n2)CC1 | 10 µM | 
O=C(C1CC1)N1CCN(c2cnc(-c3ccccc3)c(-c3ccccc3)n2)CC1 | 5.8 µM | 
CN(C)c1cnc(-c2ccccc2)c(-c2ccccc2)n1 | 45.4 µM | 
O=C(NCC1CCN(c2cnc(-c3ccccc3)c(-c3ccccc3)n2)CC1)N1CCOCC1 |  | IC50 (MGC-803): 59.3 µM; IC50 [2]: 51.8 µM; IC50 (MCF7): 47.1 µM; IC50 (NCI-H1299): 30.4 µM; solubility [3]: 0.55 µg/mL (≈ 1.2 µM); IC50 (PC-3): 28.6 µM

Structure (SMILES) | IC50 [1] | other results
CN(C)C1CCN(c2cnc(-c3ccccc3)c(-c3ccccc3)n2)CC1 | > 50 µM | 
CC(C)COC(=O)NC1CCN(c2cnc(-c3ccccc3)c(-c3ccccc3)n2)CC1 | > 25 µM | 
CN(C)c1ccc(-c2ncc(N3CCC(CNC(=O)C(C)(C)C)CC3)nc2-c2ccccc2)cc1 | 5.2 µM | 
c1ccc(-c2ncc(NC3CCCCC3)nc2-c2ccccc2)cc1 | > 50 µM | 
Clc1cnc(-c2ccccc2)c(-c2ccccc2)n1 | > 50 µM | 
O=C(NCC1CCN(c2cnc(-c3ccccc3)c(-c3ccccc3)n2)CC1)C(F)(F)F | 15.6 µM | 
CC(=O)N1CCN(c2cnc(-c3ccccc3)c(-c3ccccc3)n2)CC1 | 17.9 µM | 
O=C(NCC1CCN(c2cnc(-c3ccccc3)c(-c3ccccc3)n2)CC1)c1cccs1 | 8.5 µM | 
CC(C)N(C)c1cnc(-c2ccccc2)c(-c2ccccc2)n1 | > 50 µM | 
O=C(N1CCOCC1)N1CCN(c2cnc(-c3ccccc3)c(-c3ccccc3)n2)CC1 | > 25 µM | 
C=Cc1ncc(N2CCC(CNC(=O)C(C)(C)C)CC2)nc1-c1ccccc1 | > 25 µM | 
CC(C)N(CCCCOCC(=O)N1CCOCC1)c1cnc(-c2ccccc2)c(-c2ccccc2)n1 | 52.6 µM | 
CC(C)(C)C(=O)NCC1CCN(c2cnc(-c3cn[nH]c3)c(-c3ccccc3)n2)CC1 | > 25 µM | 
CC(C)(C)OC(=O)N1CCN(c2cnc(-c3ccccc3)c(-c3ccccc3)n2)CC1 | 1.7 µM | IC50 (MGC-803): 46.9 µM; IC50 [2]: 52.3 µM; IC50 (MCF7): 42.1 µM; IC50 (NCI-H1299): > 100 µM; solubility [3]: 0.13 µg/mL (≈ 0.312 µM); IC50 (PC-3): 96.5 µM
Cc1ccc(S(=O)(=O)NC(=O)COCCCCN(c2cnc(-c3ccccc3)c(-c3ccccc3)n2)C(C)C)cc1 | > 50 µM | 
CN1CCN(c2cnc(-c3ccccc3)c(-c3ccccc3)n2)CC1 | > 50 µM | 
O=C(CCl)NCC1CCN(c2cnc(-c3ccccc3)c(-c3ccccc3)n2)CC1 | > 25 µM | 
c1ccc(-c2ncc(NCCN3CCOCC3)nc2-c2ccccc2)cc1 | > 50 µM | 
CC1CCN(c2cnc(-c3ccccc3)c(-c3ccccc3)n2)CC1 | > 50 µM | 
CC(C)(C)C(=O)NCC1CCN(c2cnc(C3CCCCC3)c(-c3ccccc3)n2)CC1 | > 25 µM | 
CCC(=O)NCC1CCN(c2cnc(-c3ccccc3)c(-c3ccccc3)n2)CC1 | 2.8 µM | IC50 (MGC-803): 43.9 µM; IC50 [2]: 52.6 µM; IC50 (MCF7): 58.1 µM; IC50 (NCI-H1299): 68.3 µM; solubility [3]: 0.57 µg/mL (≈ 1.42 µM); IC50 (PC-3): 22.1 µM

Structure (SMILES) | IC50 [1] | other results
CNc1cnc(-c2ccccc2)c(-c2ccccc2)n1 | > 50 µM | 
CC(C)(C)OC(=O)NCC1CCN(c2cnc(-c3ccccc3)c(-c3ccccc3)n2)CC1 | 2.3 µM | IC50 (MGC-803): 23.6 µM; IC50 [2]: 45.6 µM; IC50 (MCF7): 18 µM; IC50 (NCI-H1299): 41.6 µM; solubility [3]: 0.51 µg/mL (≈ 1.15 µM); IC50 (PC-3): 11.7 µM
O=C(NCC1CCN(c2cnc(-c3ccccc3)c(-c3ccccc3)n2)CC1)C1CCCCC1 | 8.5 µM | 
O=C(C1CCCCC1)N1CCN(c2cnc(-c3ccccc3)c(-c3ccccc3)n2)CC1 | > 25 µM | 
CS(=O)(=O)NC(=O)COCCNc1cnc(-c2ccccc2)c(-c2ccccc2)n1 | > 50 µM | 
CC(C)(C)C(=O)NCC1CCN(c2cnc(-c3ccccc3)c(-c3ccccc3)n2)CC1 |  | IC50 (MGC-803): > 100 µM; IC50 [2]: 75.6 µM; IC50 (MCF7): 51.8 µM; IC50 (NCI-H1299): 59 µM; solubility [3]: 0.1 µg/mL (≈ 0.233 µM); IC50 (PC-3): 68 µM
CC(C)(C)OC(=O)N1CCCN(c2cnc(-c3ccccc3)c(-c3ccccc3)n2)CC1 | 24.5 µM | 
Cc1ccc(S(=O)(=O)NC2CCN(c3cnc(-c4ccccc4)c(-c4ccccc4)n3)CC2)cc1 | > 25 µM | 
Oc1cnc(-c2ccccc2)c(-c2ccccc2)n1 | > 50 µM | 
CN(C(=O)OC(C)(C)C)C1CCN(c2cnc(-c3ccccc3)c(-c3ccccc3)n2)CC1 | > 25 µM | 
CC(C)(C)C(=O)NCC1CCN(c2cnc(Br)c(-c3ccccc3)n2)CC1 | > 25 µM | 
CC(C)N(CCCCOCC(=O)O)c1cnc(-c2ccccc2)c(-c2ccccc2)n1 [LASELIPAG] | > 50 µM | 
CC(C)c1ncc(N2CCC(CNC(=O)C(C)(C)C)CC2)nc1-c1ccccc1 | > 25 µM | 
O=C(c1ccccc1)N1CCN(c2cnc(-c3ccccc3)c(-c3ccccc3)n2)CC1 | 17.7 µM | 
CC(C)(C)C(=O)NCC1CCN(c2cnc(-c3ccc(N)cc3)c(-c3ccccc3)n2)CC1 | > 25 µM | 
O=C(CCCl)N1CCN(c2cnc(-c3ccccc3)c(-c3ccccc3)n2)CC1 | > 25 µM | 
O=C(NCC1CCN(c2cnc(-c3ccccc3)c(-c3ccccc3)n2)CC1)c1ccccc1 | 2.4 µM | IC50 (MGC-803): > 100 µM; IC50 [2]: 81.1 µM; IC50 (MCF7): > 100 µM; IC50 (NCI-H1299): > 100 µM; solubility [3]: 0.08 µg/mL (≈ 0.178 µM); IC50 (PC-3): 70.9 µM
NC1CCN(c2cnc(-c3ccccc3)c(-c3ccccc3)n2)CC1 | 25.2 µM | 
CC(C)(C)OC(=O)NC1CCN(c2cnc(-c3ccccc3)c(-c3ccccc3)n2)CC1 | 13.7 µM | 
CC(C)(C)C(=O)NCC1CCN(c2cnc(-c3ccccc3CO)c(-c3ccccc3)n2)CC1 | > 25 µM | 
